Test results taken from US20230242496A1, “SOX11 INHIBITORS FOR TREATING MANTLE CELL LYMPHOMA” (Icahn School of Medicine At Mount Sinai, priority 2020, published 2023).
pIC50, pKd: −log10 of the molar value.

Each molecule was assayed against T1, (His)6-SOX11-DBD protein (Homo sapiens, UniProt P35716) (assay: Surface Plasmon Resonance (SPR) assay). Conditions: immobilized recombinant (His)6-SOX11-DBD, 25° C., compounds 5-40 μM, mean of three experiments.
T1 construct: Recombinant (His)6-SOX11-DBD protein was immobilized
T1 sequence (P35716 49-117 limits assumed): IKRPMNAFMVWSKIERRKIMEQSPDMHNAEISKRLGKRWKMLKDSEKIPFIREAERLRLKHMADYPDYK
Assay type: binding
Description: Surface Plasmon Resonance (SPR) Assay
Recombinant (His)6-SOX11-DBD protein was immobilized at a flow rate of 10 μl/min for 180 seconds to the right channel of a gold-coated SCR NiHC200M sensor chip (XanTec bioanalytics) placed in a Reichert 2SPR instrument (Reichert Technologies). The left channel, without immobilized protein, was used as a reference. […] Compounds flowed sequentially from the left to the right channel over the prepared sensor chip surface. 120 seconds association phase with each compound concentration was followed by 300 seconds dissociation phase with the assay buffer alone. The ka, kd, and KD values were determined from the sensograms for at least 3 concentrations of each compound by curve fitting the data using Reichert's TraceDrawer software. The mean KD value for each compound was calculated from three separate experiments.

Row | Compound | pKd
1 | CC1Sc2ccc(C(=O)Nc3cccc(OCc4cccc(OS(=O)(=O)F)c4)c3)cc2NC1=O (stereo not shown) | 4.77
2 | c1ncc2ccc(NCc3ccc(OCC4CCOCC4)cc3)cc2n1 | 4.61
3 | CCN1C(=O)CSc2ccc(C(=O)Nc3ccc(S(=O)(=O)N4CCCCC4)cc3)cc21 | 5.12
4 | COc1cccc(NC(=O)Nc2cc(Nc3cccc(S(=O)(=O)N4CCCC4)c3)ncn2)c1 | 4.78
5 | c1ncc2ccc(NCc3ccc(OCC4CCCCC4)cc3)cc2n1 | 5.08
6 | CCN(c1ccccc1)S(=O)(=O)c1ccc(NC(=O)c2ccc3c(c2)CCCS3)cc1 | 3.89
7 | CC(=O)NCCNc1nc(C)cc(C(=O)Nc2ccc(S(=O)(=O)Nc3ccccc3)cc2)n1 | 4.05
8 | CN(Cc1ccccc1)c1ccc(CNc2ccc3cccnc3c2)cc1 | 5.03
9 | CN(c1ccccc1)S(=O)(=O)c1ccc(NC(=O)c2ccc3c(c2)CCCS3)cc1Cl | 4.99
10 | Cc1ccc(C(=O)Nc2ccc(S(=O)(=O)Nc3ccccc3)cc2)cc1NC(=O)Cc1cc(=O)[nH]c(=O)[nH]1 | 4.21
11 | Cc1cc(C(=O)Nc2ccc(S(=O)(=O)Nc3ccccc3)cc2)nc(NC2CCC(N)CC2)n1 (stereo not shown) | 4.02
12 | Cc1ccccc1COc1ccc(CNc2ccc3cncnc3c2)cc1 | 4.95
13 | CN1C(=O)COc2ccc(C(=O)Nc3ccc(S(=O)(=O)N4CCCCCC4)cc3)cc21 | 5.31
14 | O=C(Nc1ccc(S(=O)(=O)Nc2ccccc2)cc1)c1ccc2nncn2c1 | 3.44
15 | CN(c1ccc(Cl)cc1)S(=O)(=O)c1ccc(NC(=O)c2ccc3c(c2)CCCS3)cc1 | 4.97
16 | CC1Sc2ccc(C(=O)Nc3cccc(CNc4cccc(OS(=O)(=O)F)c4)c3)cc2NC1=O (stereo not shown) | 4.95
17 | CN(c1ccccc1)S(=O)(=O)c1ccc(NC(=O)c2ccc(/C=C/C(=O)O)cc2)cc1 | 3.97
18 | CN(Cc1ccc(NC(=O)c2ccc3c(c2)N(C)C(=O)CS3)cc1)c1ccccc1 | 5.09
19 | Cc1ccc(C(=O)Nc2ccc(S(=O)(=O)Nc3ccccc3)cc2)cc1NC(=O)CCc1c[nH]cn1 | 4.14

Row | Compound | pKd
20 | CN(c1ccccc1Cl)S(=O)(=O)c1ccc(NC(=O)c2ccc3c(c2)CCCS3)cc1 | 5.62
21 | NCCc1nc2ccc(C(=O)Nc3ccc(S(=O)(=O)Nc4ccccc4)cc3)cc2[nH]1 | 4.10
22 | O=C1CSc2ccc(C(=O)Nc3ccc(CNc4ccccc4)cc3)cc2N1 | 5.76
23 | CC(C)N1C(=O)CSc2ccc(C(=O)Nc3ccc(S(=O)(=O)N4CCCCC4)cc3)cc21 | 5.20
24 | FC(F)(F)c1cc(OCc2ccccc2)ccc1CNc1ccc2cncnc2c1 | 5.28
25 | Cc1cc(C(=O)Nc2ccc(S(=O)(=O)Nc3ccccc3)cc2)nc(NCCN)n1 | 4.66
26 | CC(=O)NCc1cccc(Nc2nc(Nc3cccc(S(=O)(=O)N4CCCC4)c3)ncc2C)c1 | 3.79
27 | CC1Sc2ccc(C(=O)Nc3cccc(S(=O)(=O)F)c3)cc2NC1=O (stereo not shown) | 4.45
28 | CN(c1ccccc1)S(=O)(=O)c1ccc(NC(=O)c2ccc3c(c2)CCCS3)cc1C(F)(F)F | 5.25
29 | CN(Cc1cccc(NC(=O)c2ccc3c(c2)CCCS3)c1)c1ccccc1 | 4.43
30 | Cc1cccc(COc2ccc(CNc3ccc4cncnc4c3)cc2)c1 | 5.12
31 | O=C(Nc1ccc(CNc2ccccc2)cc1)c1ccc2oc(=O)[nH]c2c1 | 5.10
32 | CN(Cc1ccccc1)c1ccc(CNc2ccc3cncnc3c2)cc1 | 4.68
33 | CC(=O)N1CCN(S(=O)(=O)c2ccc(NC(=O)c3ccc4snnc4c3)cc2)CC1 | 4.77
34 | Clc1cc(CNc2ccc3cncnc3c2)ccc1OCc1ccccc1 | 5.40
35 | Clc1ccccc1COc1ccc(CNc2ccc3cncnc3c2)cc1 | 5.10
36 | Clc1cccc(COc2ccc(CNc3ccc4cncnc4c3)cc2)c1 | 5.48
37 | CC1Sc2ccc(C(=O)Nc3ccc(OCc4cccc(S(=O)(=O)F)c4)cc3)cc2NC1=O (stereo not shown) | 5.14
38 | Nc1cccc(Nc2ccnc(Nc3cccc(S(=O)(=O)N4CCCC4)c3)n2)c1 | 3.93

Other lines, results leading:

Row | pKd | Compound
39 | 3.61 | O=C(Cc1ccccc1[N+](=O)[O-])Nc1cccc(C(=O)Nc2ccc(CN3CCCC3)cc2)c1
40 | 3.89 | CN1C(=O)CSc2ccc(C(=O)Nc3ccc(CN4CCCCC4)cc3)cc21
41 | 3.91 | Cc1cc(C(=O)Nc2ccc(OCc3ccccc3)cc2)nc(NCCN)n1
42 | 3.98 | Cc1cnc(Nc2cccc(S(=O)(=O)N3CCCC3)c2)nc1Nc1cccc(N)c1
43 | 4.09 | CN1C(=O)CSc2ccc(C(=O)Nc3ccc(S(C)(=O)=O)cc3)cc21
44 | 4.09 | Cc1cc(Nc2cc(C(=O)Nc3ccc(S(=O)(=O)Nc4ccccc4)cc3)ccc2C)nc(N)n1
45 | 4.34 | O=C(Nc1ccc(CNc2ccccc2)cc1)c1ccc2nncn2c1
46 | 4.41 | CN(Cc1cccc(NC(=O)c2ccc3snnc3c2)c1)c1ccccc1
47 | 4.42 | CC(=O)NCc1cccc(Nc2ccnc(Nc3cccc(S(=O)(=O)N4CCCC4)c3)n2)c1
48 | 4.51 | c1ccc(CNc2ccc(CNc3ccc4cncnc4c3)cc2)cc1
49 | 4.60 | CCCCN1C(=O)CSc2ccc(C(=O)Nc3ccc(S(=O)(=O)N4CCCCC4)cc3)cc21
50 | 4.61 | CN(Cc1ccc(NC(=O)c2ccc3c(c2)NC(=O)CS3)cc1)c1ccccc1
51 | 4.62 | CC(=O)N1CCN(S(=O)(=O)c2ccc(NC(=O)c3ccc4c(c3)CCCS4)cc2)CC1
52 | 4.62 | O=C(Nc1cccc(CN2CCCCC2)c1)c1ccc2c(c1)CCCS2
53 | 4.74 | O=C(Nc1cccc(CNc2ccccc2)c1)c1ccc2oc(=O)[nH]c2c1
54 | 4.80 | O=C(Nc1ccc(S(=O)(=O)N2CCCCC2)cc1)c1ccc2c(c1)N(Cc1ccccc1)C(=O)CS2
55 | 4.81 | CN(Cc1ccc(NC(=O)c2ccc3oc(=O)[nH]c3c2)cc1)c1ccccc1

Row | pKd | Compound
56 | 4.81 | CC(=O)N1CCN(S(=O)(=O)c2cccc(NC(=O)c3ccc4c(c3)CCCS4)c2)CC1
57 | 4.81 | Nc1ccccc1CC(=O)Nc1cccc(C(=O)Nc2ccc(CN3CCCC3)cc2)c1
58 | 4.85 | CN(c1cccc(Cl)c1)S(=O)(=O)c1ccc(NC(=O)c2ccc3c(c2)CCCS3)cc1
59 | 4.87 | CN(Cc1cccc(NC(=O)c2ccc3oc(=O)[nH]c3c2)c1)c1ccccc1
60 | 4.91 | O=C(Nc1cccc(OCc2ccccc2)c1)c1ccc2oc(=O)[nH]c2c1
61 | 4.92 | c1ccc(OCc2ccc(CNc3ccc4cncnc4c3)cc2)cc1
62 | 4.94 | CN(Cc1ccc(NC(=O)c2ccc3c(c2)CCCS3)cc1)c1ccccc1
63 | 4.96 | CN(c1ccccc1)S(=O)(=O)c1ccc(NC(=O)c2ccc(SCC(=O)O)cc2)cc1
64 | 4.99 | Cc1ccccc1N(C)S(=O)(=O)c1ccc(NC(=O)c2ccc3c(c2)CCCS3)cc1
65 | 5.03 | Cc1cc(OCc2ccccc2)ccc1CNc1ccc2cncnc2c1
66 | 5.18 | O=C(Nc1ccc(S(=O)(=O)N2CCCCC2)cc1)c1ccc2c(c1)N(c1ccccc1)C(=O)CS2
67 | 5.28 | O=C1COc2ccc(C(=O)Nc3ccc(CNc4ccccc4)cc3)cc2N1
68 | 5.31 | FC(F)(F)c1cc(CNc2ccc3cncnc3c2)ccc1OCc1ccccc1
69 | 5.34 | Cc1cccc(N(C)S(=O)(=O)c2ccc(NC(=O)c3ccc4c(c3)CCCS4)cc2)c1
70 | 5.54 | CN(Cc1ccc(NC(=O)c2ccc3nn[nH]c3c2)cc1)c1ccccc1
71 | 5.56 | Cc1ccc(N(C)S(=O)(=O)c2ccc(NC(=O)c3ccc4c(c3)CCCS4)cc2)cc1

The molecules below were run on Jeko-1 (SOX11+) (assay: Cell viability assay (CellTiter-Blue resazurin reduction)). Conditions: Homo sapiens, JeKo-1, 72 h, JeKo-1 cells, 0-40 μM.
Assay type: cell-based
Description: Cell viability was determined by a fluorometric resazurin reduction method (CellTiter-Blue; Promega, Madison, Wis.) following the manufacturer's instructions. […] Cells were incubated for 72 hours. After incubation, 20 μl CellTiter-Blue Cell was added to each well and incubated for another 2 hours. […] The number of viable cells in each treated well was calculated, based on the linear least squares regression of the standard curve (OD vs. cell concentration). The viability of cells treated with compounds was normalized to the viability of cells treated with 0.2% Dimethyl sulfoxide (DMSO). Cell counts were confirmed with Trypan Blue Exclusion Assay on the Countess automated cell counter (Invitrogen) according to the manufacturer's specifications. The average and mean standard deviation were calculated from three separate experiments. IC50 values were calculated using the GraphPad Prism (version 4.00) based on a sigmoidal dose-response equation.

Row | Compound | pIC50
72 | C[C@H]1Sc2ccc(C(=O)Nc3ccc(S(=O)(=O)Nc4ccccc4)cc3)cc2NC1=O | 4.90
73 | CC1Sc2ccc(C(=O)Nc3ccc(S(=O)(=O)Nc4ccccc4)cc3C(F)(F)F)cc2NC1=O (stereo not shown) | 5.30
74 | O=C(Nc1ccc(S(=O)(=O)Nc2ccccc2)cc1)c1ccc2nn[nH]c2c1 | 4.92
75 | CC1Sc2ccc(C(=O)Nc3cccc(S(=O)(=O)Nc4cccc(C(F)(F)F)c4)c3)cc2NC1=O (stereo not shown) | 5.00
76 | Cc1cc(S(=O)(=O)Nc2ccccc2)ccc1NC(=O)c1ccc2c(c1)NC(=O)C(C)S2 (stereo not shown) | 4.70
77 | CC1Sc2ccc(C(=O)Nc3ccc(S(=O)(=O)Nc4ccccc4F)cc3)cc2NC1=O (stereo not shown) | 4.82
78 | CC1Sc2ccc(C(=O)Nc3ccc(S(=O)(=O)Nc4ccccc4)cc3)cc2NC1=O (stereo not shown) [drawing 599] | 4.90

Same assay, conditions: Homo sapiens, JeKo-1, 72 h, JeKo-1 cells, 20 μM compound, normalized to 0.2% DMSO

Row | Compound | viability at 20 µM [%]
79 | CC1Sc2ccc(C(=O)Nc3ccc(S(=O)(=O)Nc4ccccc4)cc3C(F)(F)F)cc2NC1=O (stereo not shown) | 1.38
80 | CC1Sc2ccc(C(=O)Nc3cccc(OCc4ccccc4C(F)(F)F)c3)cc2NC1=O (stereo not shown) | 87.1
81 | O=C(Nc1ccc(S(=O)(=O)Nc2ccccc2)cc1)c1ccc2nn[nH]c2c1 | 5.75
82 | CC1Sc2ccc(C(=O)Nc3cccc(S(=O)(=O)Nc4cccc(C(F)(F)F)c4)c3)cc2NC1=O (stereo not shown) | 16.8
83 | Cc1cc(S(=O)(=O)Nc2ccccc2)ccc1NC(=O)c1ccc2c(c1)NC(=O)C(C)S2 (stereo not shown) | 51.1
84 | CC1Sc2ccc(C(=O)Nc3ccc(OCc4ccccc4)cc3)cc2NC1=O (stereo not shown) | 104
85 | CC1Sc2ccc(C(=O)Nc3ccc(S(=O)(=O)Nc4ccccc4F)cc3)cc2NC1=O (stereo not shown) | 21.2
86 | CC1Sc2ccc(C(=O)Nc3ccc(OCc4ccccc4C(F)(F)F)cc3)cc2NC1=O (stereo not shown) | 106

Same assay, conditions: JeKo-1 cells, 20 μM compound, 72 hours, normalized to 0.2% DMSO; 20 µM

Row | Compound | Jeko-1 Viability at 20 μM (%)
87 | O=C1CSc2ccc(C(=O)Nc3ccc(S(=O)(=O)Nc4ccccc4)cc3)cc2N1 [drawing 513] | 79.21
88 | O=C1CSc2ccc(C(=O)Nc3ccc(S(=O)(=O)Nc4ccccc4)cc3)cc2N1 [drawing 503] | 2.73
89 | CC1Sc2ccc(C(=O)Nc3ccc(S(=O)(=O)Nc4ccccc4)cc3)cc2NC1=O (stereo not shown) [drawing 599] | 6.36

Same assay, conditions: JeKo-1 cells, 72 hours, 0-40 μM

Row | Compound | pIC50
90 | O=C1CSc2ccc(C(=O)Nc3ccc(S(=O)(=O)Nc4ccccc4)cc3)cc2N1 [drawing 513] | < 4.70
91 | O=C1CSc2ccc(C(=O)Nc3ccc(S(=O)(=O)Nc4ccccc4)cc3)cc2N1 [drawing 503] | 5.12
